PubChem BioAssay (NCI)
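Values below derive from 48-hour exposures of cells grown in 96-well plates, with endpoints linearly interpolated between the two concentrations bracketing the appropriate inhibition level. Definition used: TGI = concentration required for complete inhibition of growth.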

Experiments:
Experiment in all cases: NCI tumour cell line growth inhibition, 48 h
RXF-631 renal = tested on: RXF-631 renal
SN12K1 renal = tested on: SN12K1 renal
P388/ADR leukemia = tested on: P388/ADR leukemia
P388 leukemia = tested on: P388 leukemia

SMILES	TGI (RXF-631 renal) [µM]	TGI (SN12K1 renal) [µM]	TGI (P388/ADR leukemia) [µM]	TGI (P388 leukemia) [µM]
CN(C)CCNc1ccc2nnn3c4ccc(Cl)cc4c(=O)c1c23	16.4	–	–	–
CCCNCC(O)/C=C/[Si](C)(C)C (stereo not given) (tested in a mixture with another compound)	> 100	–	–	–
CCCCCCc1ccc(O)cc1O	–	> 100	> 100	> 100
